This is an account of results in US10072026B2, “Crystalline form of 3-((1R,3s,5S)-3-((7-((5-methyl-1H-pyrazol-3-yl)amino)-1,6-naphthyridin-5-yl)amino)-8-azabicyclo[3.2.1]octan-8-yl)propanenitrile” (priority 2015, dated 2018).

One experiment addresses JAK1 (Homo sapiens (Human), UniProt P23458). Briefly: LanthaScreen JAK biochemical assay (JAK1).
The test system of experiment [1] is IL-4 induced STAT6 phosphorylation in THP-1 human monocytic cells. Kind of experiment: Cellular JAK potency assay, THP-1.
Another experiment addresses JAK2 (Homo sapiens (Human), UniProt O60674). Kind of experiment: LanthaScreen JAK biochemical assay (JAK2). (In TR-FRET formats the signal depends on donor and acceptor labels being close together.)
[2] abbreviates: read-out: JAK 1 (pKi) (converted).
The mark [3] stands for this setting: Homo sapiens, THP-1, read-out: THP-1 IL4 pIC50 (converted).
[4] abbreviates: IL-4 induced STAT6 phosphorylation, THP-1 cells.
Where [5] appears, read: THP-1 cells, IL-4 induced STAT6 phosphorylation.

Read-outs that look alike come from different tables or passages of the source.

Sequence of JAK2 (O60674 whole entry): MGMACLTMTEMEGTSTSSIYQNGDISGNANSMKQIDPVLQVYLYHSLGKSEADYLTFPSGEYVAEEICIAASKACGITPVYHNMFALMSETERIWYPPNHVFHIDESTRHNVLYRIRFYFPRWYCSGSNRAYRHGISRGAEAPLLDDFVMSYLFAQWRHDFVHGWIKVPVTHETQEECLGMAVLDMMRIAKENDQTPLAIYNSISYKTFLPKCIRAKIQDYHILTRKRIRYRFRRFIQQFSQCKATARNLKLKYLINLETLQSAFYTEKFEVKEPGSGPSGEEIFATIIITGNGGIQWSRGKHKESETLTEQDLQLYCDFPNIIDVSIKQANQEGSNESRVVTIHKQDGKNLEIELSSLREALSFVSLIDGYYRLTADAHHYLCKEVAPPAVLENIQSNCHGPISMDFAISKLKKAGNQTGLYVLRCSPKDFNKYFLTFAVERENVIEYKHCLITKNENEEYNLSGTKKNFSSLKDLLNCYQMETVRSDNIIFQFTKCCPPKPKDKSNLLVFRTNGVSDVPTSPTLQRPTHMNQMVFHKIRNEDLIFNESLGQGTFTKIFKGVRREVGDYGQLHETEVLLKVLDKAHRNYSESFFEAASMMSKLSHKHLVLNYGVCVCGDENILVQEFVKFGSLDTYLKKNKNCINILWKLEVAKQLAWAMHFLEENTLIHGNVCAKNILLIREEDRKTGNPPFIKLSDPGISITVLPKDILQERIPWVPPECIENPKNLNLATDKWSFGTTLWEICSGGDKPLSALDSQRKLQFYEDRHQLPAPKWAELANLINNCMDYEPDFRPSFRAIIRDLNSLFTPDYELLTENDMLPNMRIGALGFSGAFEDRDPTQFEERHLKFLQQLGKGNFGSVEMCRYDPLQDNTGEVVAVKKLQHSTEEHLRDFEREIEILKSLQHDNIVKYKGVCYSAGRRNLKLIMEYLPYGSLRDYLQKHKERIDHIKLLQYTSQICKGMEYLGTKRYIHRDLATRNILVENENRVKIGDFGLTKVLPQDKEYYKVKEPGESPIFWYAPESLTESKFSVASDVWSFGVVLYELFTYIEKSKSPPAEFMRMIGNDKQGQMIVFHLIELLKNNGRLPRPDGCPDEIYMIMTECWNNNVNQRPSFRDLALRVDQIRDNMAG
Sequence of JAK1 (P23458 whole entry): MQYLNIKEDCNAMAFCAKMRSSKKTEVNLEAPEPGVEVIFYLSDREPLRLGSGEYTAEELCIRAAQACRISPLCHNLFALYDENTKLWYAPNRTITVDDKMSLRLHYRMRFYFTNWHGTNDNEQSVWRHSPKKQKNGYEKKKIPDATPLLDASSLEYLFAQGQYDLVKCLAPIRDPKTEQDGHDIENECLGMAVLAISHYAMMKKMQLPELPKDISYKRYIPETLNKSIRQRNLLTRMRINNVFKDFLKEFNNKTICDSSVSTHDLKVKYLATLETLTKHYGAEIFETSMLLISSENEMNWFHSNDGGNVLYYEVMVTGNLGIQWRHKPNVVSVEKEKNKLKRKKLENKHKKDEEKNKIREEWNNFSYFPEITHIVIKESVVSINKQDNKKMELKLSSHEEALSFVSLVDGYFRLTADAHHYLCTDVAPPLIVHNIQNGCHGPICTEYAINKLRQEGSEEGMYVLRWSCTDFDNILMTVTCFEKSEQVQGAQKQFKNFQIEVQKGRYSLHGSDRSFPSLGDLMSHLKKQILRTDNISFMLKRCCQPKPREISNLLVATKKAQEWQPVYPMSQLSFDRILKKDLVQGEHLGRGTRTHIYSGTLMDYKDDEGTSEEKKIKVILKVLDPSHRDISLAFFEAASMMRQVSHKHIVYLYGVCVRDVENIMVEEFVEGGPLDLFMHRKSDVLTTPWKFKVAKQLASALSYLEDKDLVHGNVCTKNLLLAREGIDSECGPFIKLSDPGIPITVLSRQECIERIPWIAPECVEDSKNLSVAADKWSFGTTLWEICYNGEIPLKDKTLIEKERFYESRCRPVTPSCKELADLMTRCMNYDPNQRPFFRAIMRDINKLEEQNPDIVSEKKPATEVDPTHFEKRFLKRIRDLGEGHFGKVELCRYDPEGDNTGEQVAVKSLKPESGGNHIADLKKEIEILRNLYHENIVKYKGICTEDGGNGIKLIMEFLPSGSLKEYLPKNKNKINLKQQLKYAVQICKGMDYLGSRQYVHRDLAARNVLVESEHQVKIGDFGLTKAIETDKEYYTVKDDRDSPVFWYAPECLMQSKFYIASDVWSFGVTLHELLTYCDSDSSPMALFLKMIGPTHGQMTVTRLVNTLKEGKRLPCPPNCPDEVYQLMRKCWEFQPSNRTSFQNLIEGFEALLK

As for `Cc1cc(Nc2cc3ncccc3c(N[C@@H]3C[C@H]4CC[C@@H](C3)N4Cc3ccc(O)cc3)n2)n[nH]1` [Example 1-18], the Ki at JAK1 (setting [2]) was 0.1 to 1 nM. Besides, the IC50 in experiment [1] (setting [3]) was above 200 nM.
Turning to `Cc1cc(Nc2cc3ncccc3c(N[C@@H]3C[C@H]4CC[C@@H](C3)N4C3CCOC3=O)n2)n[nH]1` (stereo partly drawn) [Example 1-26], the Ki at JAK1 (setting [2]) and on JAK2 (read-out: JAK 2 (pKi) (converted)) was 0.1 to 1 nM throughout.
Take `Cc1cc(Nc2cc3ncccc3c(N[C@@H]3C[C@H]4CC[C@@H](C3)N4C3CCOC3=O)n2)n[nH]1` (stereo partly drawn) [Example 1-27]: the “JAK 1 (pKi)” value at JAK1 was “B (B represents a pKi value between 9 and 10 (Ki between 1 nM and 0.1 nM))”. Moreover, the “JAK 2 (pKi)” value at JAK2 is “B (B represents a pKi value between 9 and 10 (Ki between 1 nM and 0.1 nM))”.
On to `COC(=O)CN1[C@@H]2CCC[C@H]1C[C@H](Nc1nc(Nc3cc(C)[nH]n3)cc3ncccc13)C2` [Example 1-32], for which, at JAK2, the “JAK 2 (pKi)” value is “A (A represents a pKi value≥10 (Ki≤0.1 nM))”. The “THP-1 IL4 pIC50” value in experiment [1] (setting [4]) was “C (C represents a pEC50 value<6.7 (EC50>200 nM))”.
Turning to `COC(=O)CCCN1[C@@H]2CCC[C@H]1C[C@H](Nc1nc(Nc3cc(C)[nH]n3)cc3ncccc13)C2` [Example 1-34], the “JAK 1 (pKi)” value at JAK1 is “B (B represents a pKi value between 9 and 10 (Ki between 1 nM and 0.1 nM))”. Moreover, in experiment [1] (setting [4]), the “THP-1 IL4 pIC50” value is recorded as “C (C represents a pEC50 value<6.7 (EC50>200 nM))”.
With `COCCCN1[C@@H]2CCC[C@H]1C[C@H](Nc1nc(Nc3cc(C)[nH]n3)cc3ncccc13)C2` [Example 1-46], on JAK1, the “JAK 1 (pKi)” value was “B (B represents a pKi value between 9 and 10 (Ki between 1 nM and 0.1 nM))”. In experiment [1] (setting [4]), the “THP-1 IL4 pIC50” value is “B (B represents a pEC50 value between 6.7 and 7.5 (EC50 between 200 nM and 32 nM))”.
With `Cc1cc(Nc2cc3ncccc3c(N[C@@H]3C[C@H]4CCC[C@@H](C3)N4CC3COC(=O)O3)n2)n[nH]1` (stereo partly drawn) [Example 1-58], at JAK2, the “JAK 2 (pKi)” value was “A (A represents a pKi value≥10 (Ki≤0.1 nM))”. Besides, the “THP-1 IL4 pIC50” value in experiment [1] (setting [4]) was “B (B represents a pEC50 value between 6.7 and 7.5 (EC50 between 200 nM and 32 nM))”.
Turning to `COC(=O)C1(C(=O)N2[C@@H]3CCC[C@H]2C[C@H](Nc2nc(Nc4cc(C)[nH]n4)cc4ncccc24)C3)CC1` [Example 2-21], the “JAK 2 (pKi)” value at JAK2 was “B (B represents a pKi value between 9 and 10 (Ki between 1 nM and 0.1 nM))”. For the same molecule, in experiment [1] (setting [4]), the “THP-1 IL4 pIC50” value is “B (B represents a pEC50 value between 6.7 and 7.5 (EC50 between 200 nM and 32 nM))”.
For `Cc1cc(Nc2cc3ncccc3c(N[C@@H]3C[C@H]4CCC[C@@H](C3)N4C(=O)C3(C)CCCC3)n2)n[nH]1` [Example 2-23], the “JAK 2 (pKi)” value at JAK2 was “B (B represents a pKi value between 9 and 10 (Ki between 1 nM and 0.1 nM))”. Further, the “THP-1 IL4 pIC50” value in experiment [1] (setting [4]) is “B (B represents a pEC50 value between 6.7 and 7.5 (EC50 between 200 nM and 32 nM))”.
`Cc1cc(Nc2cc3ncccc3c(N[C@@H]3C[C@H]4CC[C@@H](C3)N4C(=O)OCC(C)C)n2)n[nH]1` [Example 3-3]: at JAK1, the “JAK 1 (pKi)” value is “B (B represents a pKi value between 9 and 10 (Ki between 1 nM and 0.1 nM))”. In experiment [1] (setting [4]), the “THP-1 IL4 pIC50” value is “A (A represents a pEC50 value≥7.5 (EC50≤32 nM))”.
Take `COCCOC(=O)N1[C@@H]2CC[C@H]1C[C@H](Nc1nc(Nc3cc(C)[nH]n3)cc3ncccc13)C2` [Example 3-5]: the “JAK 1 (pKi)” value at JAK1 was “B (B represents a pKi value between 9 and 10 (Ki between 1 nM and 0.1 nM))”. For the same molecule, the “THP-1 IL4 pIC50” value in experiment [1] (setting [4]) is “B (B represents a pEC50 value between 6.7 and 7.5 (EC50 between 200 nM and 32 nM))”.
`Cc1cc(Nc2cc3ncccc3c(N[C@@H]3C[C@H]4CC[C@@H](C3)N4S(=O)(=O)C3(C)CC3)n2)n[nH]1` [Example 4-8]: on JAK1 (setting [2]), the Ki is […]. In addition, the IC50 in experiment [1] (setting [3]) was below 31.6 nM.
The matching figures for `Cc1cc(Nc2cc3ncccc3c(N[C@@H]3C[C@H]4CC[C@@H](C3)N4S(=O)(=O)C3CN(CCC#N)C3)n2)n[nH]1` [Example 4-11]: 0.1 to 1 nM and above 200 nM.
At JAK1, `COCC1CCCN1S(=O)(=O)N1[C@@H]2CC[C@H]1C[C@H](Nc1nc(Nc3cc(C)[nH]n3)cc3ncccc13)C2` (stereo partly drawn) [Example 4-12] registered a Ki of 0.1 to 1 nM. For the same molecule, the IC50 in experiment [1] (setting [3]) was 31.6 to 200 nM.
For the molecule `COc1ccc2c(N[C@@H]3C[C@H]4CC[C@@H](C3)N4CCCF)nc(Nc3cc(C)[nH]n3)cc2n1` [Example 5-5], at JAK1, the “JAK 1 (pKi)” value was “B (B represents a pKi value between 9 and 10 (Ki between 1 nM and 0.1 nM))”. For the same molecule, the “THP-1 IL4 pIC50” value in experiment [1] (setting [4]) is “B (B represents a pEC50 value between 6.7 and 7.5 (EC50 between 200 nM and 32 nM))”.
`Cc1cc(Nc2cc3nc(CN4CCOCC4)ccc3c(N[C@@H]3C[C@H]4CC[C@@H](C3)N4CCC#N)n2)n[nH]1` [Example 5-18]: on JAK2, the “JAK 2 (pKi)” value is “A (A represents a pKi value≥10 (Ki≤0.1 nM))”. Moreover, in experiment [1] (setting [4]), the “THP-1 IL4 pIC50” value is “B (B represents a pEC50 value between 6.7 and 7.5 (EC50 between 200 nM and 32 nM))”.
With `Cc1cc(Nc2cc3nc(CN4CCOCC4)ccc3c(N[C@@H]3C[C@H]4CC[C@@H](C3)N4CC(C)C)n2)n[nH]1` [Example 5-19], at JAK1, the “JAK 1 (pKi)” value was “B (B represents a pKi value between 9 and 10 (Ki between 1 nM and 0.1 nM))”. The “THP-1 IL4 pIC50” value in experiment [1] (setting [4]) is “B (B represents a pEC50 value between 6.7 and 7.5 (EC50 between 200 nM and 32 nM))”.
For the molecule `Cc1cc(Nc2cc3nc(CN4CCOCC4)ccc3c(N[C@@H]3C[C@H]4CCC[C@@H](C3)N4CC(F)(F)F)n2)n[nH]1` [Example 5-29], the “JAK 2 (pKi)” value at JAK2 was “A (A represents a pKi value≥10 (Ki≤0.1 nM))”. Moreover, the “THP-1 IL4 pIC50” value in experiment [1] (setting [4]) is “B (B represents a pEC50 value between 6.7 and 7.5 (EC50 between 200 nM and 32 nM))”.
Turning to `Cc1cnc2cc(Nc3cc(C)[nH]n3)nc(N[C@@H]3C[C@H]4CCC[C@@H](C3)N4C(=O)OCC(C)C)c2c1` [Example 6-7], the “JAK 2 (pKi)” value at JAK2 is “B (B represents a pKi value between 9 and 10 (Ki between 1 nM and 0.1 nM))”. Also, the “THP-1 IL4 pIC50” value in experiment [1] (setting [5]) was “B (B represents a pEC50 value between 6.7 and 7.5 (EC50 between 200 nM and 32 nM))”.
Consider `COc1cnc2cc(Nc3cc(C)[nH]n3)nc(N[C@@H]3C[C@H]4CCC[C@@H](C3)N4CCCF)c2c1` [Example 6-26], for which the “JAK 1 (pKi)” value on JAK1 was “B (B represents a pKi value between 9 and 10 (Ki between 1 nM and 0.1 nM))”. Also, the “THP-1 IL4 pIC50” value in experiment [1] (setting [5]) is “B (B represents a pEC50 value between 6.7 and 7.5 (EC50 between 200 nM and 32 nM))”.
Take `COC(=O)c1cnc2cc(Nc3cc(C)[nH]n3)nc(N[C@@H]3C[C@H]4CC[C@@H](C3)N4C(=O)CN(C)C)c2c1` [Example 6-39]: the “JAK 1 (pKi)” value on JAK1 was “B (B represents a pKi value between 9 and 10 (Ki between 1 nM and 0.1 nM))”. Also, in experiment [1] (setting [5]), the “THP-1 IL4 pIC50” value was “C (C represents a pEC50 value<6.7 (EC50>200 nM))”.
On to `COc1ccnc2cc(Nc3cc(C)[nH]n3)nc(N[C@@H]3C[C@H]4CC[C@@H](C3)N4C(=O)OCC(C)C)c12` [Example 7-1], for which the “JAK 1 (pKi)” value on JAK1 was “B (B represents a pKi value between 9 and 10 (Ki between 1 nM and 0.1 nM))”. Further, the “THP-1 IL4 pIC50” value in experiment [1] (setting [5]) was “B (B represents a pEC50 value between 6.7 and 7.5 (EC50 between 200 nM and 32 nM))”.
As to `Cc1cc(Nc2nc(N[C@@H]3C[C@H]4CCC[C@@H](C3)N4C(=O)CN(C)C)c3cccnc3c2F)n[nH]1` [Example 8-15], the “JAK 1 (pKi)” value on JAK1 was “B (B represents a pKi value between 9 and 10 (Ki between 1 nM and 0.1 nM))”. The “THP-1 IL4 pIC50” value in experiment [1] (setting [5]) is recorded as “C (C represents a pEC50 value<6.7 (EC50>200 nM))”.
On to `COC(=O)c1cnc2cc(Nc3cc(C)[nH]n3)nc(N[C@@H]3C[C@H]4CC[C@@H](C3)N4C3CCCOC3=O)c2c1` (stereo partly drawn) [Example 16, Methyl 7-((5-methyl-1H-pyrazol-3-yl)amino)-5-(((1R,3s,5S)-8-(2-oxotetrahydro-2H-pyran-3-yl)-8-azabicyclo[3.2.1]octan-3-yl)amino)-1,6-naphthyridine-3-carboxylate], for which the Ki at JAK1 (setting [2]) was 0.1 to 1 nM. In experiment [1] (setting [3]), the IC50 is 31.6 to 200 nM.
